Results taken from ChEMBL document CHEMBL3507680, “University of Dundee, Gates Library screen for HepG2 cell viability”.

assay: Human HepG2 cell viability assay in 384 well format; type: toxicity, cell-based; parameters: dose 125 nL, time 70.5 hour; concentration not given beside the values; details: HepG2 cells, read-out: Inhibition

SMILES | cytotoxicity at 70.5 h [%]
Cc1cccc(COC[C@H]2CC[C@H]3[C@H](CCN3C(=O)CC3CC3)O2)n1 | -6.89
CC(C)(C)c1noc(-c2ccnc(-n3cnc(C(=O)O)c3)c2)n1 | -4.5
Cc1cccc(C(=O)N2CCc3ncnc(C4CCOC4)c3CC2)n1 (centres undefined) | -0.465
CC(=O)N1CCN(C(=O)C[C@@H]2C[C@@H](C(C)C)[C@H](CC#N)C=C2C)CC1 | 0.119
N#Cc1c(N)nc2c(c1-c1c[nH]nc1C1CCCCC1)CNCC2 | 18.5
O=C(NCC1CC1)c1ccc(NC(=O)c2ccco2)cc1 | -5.31
COc1cccc(S(=O)(=O)N2CCCCC2CCN2CCOCC2)c1 (centres undefined) | 24.6
CCOc1ccc(C(=O)N(C)Cc2nccn2CC(F)(F)F)cc1 | -2.52
CCn1c(C2CCCN(C(=O)c3ccc[nH]3)C2)nn(CCN(C)C)c1=O (centres undefined) | 4.96
Cc1ccnc(OC[C@@]23CCO[C@@H]2CCN(C2CCC2)C3)n1 | 4.5
O=C1COC2(CCN(C(=O)c3ccco3)CC2)CN1Cc1ccccn1 | -1.65
CN1C(=O)C(c2cccnc2)CC12CCN(Cc1nccs1)CC2 (centres undefined) | 1.71
CNC(=O)CN(C)S(=O)(=O)c1c(Br)cc2[nH]c(=O)oc2c1Cl | -3.9
O=C(Nc1cc(C(F)(F)F)c[nH]c1=O)C1CCCCN1 (centres undefined) | -8.9
CCCc1n[nH]c(C2CN(C(=O)c3cc4c(s3)CCC4)CCO2)n1 (centres undefined) | -7.08
Cc1nc(CN2CCCC(Nc3ncnc4c3CCC4)C2)no1 (centres undefined) | -7.99
N#CC1(NC(=O)c2nccc3ccccc23)CCSCC1 | -9.79
Cc1ccc(CSc2nc(N)cc(NCC(=O)N3CCNCC3)n2)cc1 | -4.01
Cc1nc(C(NS(=O)(=O)N(C)C)c2ccccc2F)no1 (centres undefined) | -2.92
O=C(CCc1cc2n(n1)CCNC2)NCCS(=O)(=O)N1CCCC1 | -11.2
CN(C)C(=O)CN1CCC2(COCc3cnc(-c4cccnc4)nc32)C1 (centres undefined) | -5.78
Cc1nnc2n1CCN(Cc1csc(COc3ccccc3)n1)C2 | -7.26
CN(CC(=O)NCCCOc1ccc(F)cc1)c1ccc(C#N)cn1 | -19
Cc1cccc(CC(=O)N2CCOCC2c2c(C)n[nH]c2C)c1 (centres undefined) | -18.3
CSc1ccsc1C(=O)NS(=O)(=O)c1ccc(F)cc1 | -7.27
COc1ccc(NC(=O)Cn2ccc3c(=O)n(C)ccc32)cc1OC | -3.38
Cc1cc(C)n(CC2CCCN2CCc2ccccn2)n1 (centres undefined) | 1.45

SMILES | cytotoxicity at 70.5 h [%]
Fc1ccc(C(CNc2ccncn2)N2CCCC2)cc1 (centres undefined) | 12.7
CC(C)N1CCC(Cc2cncc(-c3ccccc3C(=O)O)n2)C1 (centres undefined) | -4.44
Cn1ncc(N2CCC(CNC(=O)[C@@H](N)C3CCCCC3)CC2)cc1=O | 3.03
CN(Cc1ccc(F)cc1)C(=O)CN1CCOC(Cn2cncn2)C1 (centres undefined) | 40.3
CN1CC(C(=O)NCc2cccnc2-n2cccn2)CC1=O (centres undefined) | -6.03
Cc1nc(CNc2nc(-c3ccco3)nc3c2CCNCC3)n[nH]1 | -5.4
CCc1ncc2c(n1)CN(Cc1nnc(Cc3ccccc3)o1)CC2 | -1.62
Cc1nn(C)c2nc(-c3ccccn3)nc(NCCC3CCCN3C)c12 (centres undefined) | 1.37
Cc1nc(CN(C)c2nccc(C(F)(F)F)n2)cs1 | -7.33
Cn1ccnc1SCCNC(=O)Cn1cnc2ccccc2c1=O | 1.77
COCc1nc(-c2ccc(S(=O)(=O)N3CCCC3)cc2)cs1 | -3.85
CC1CCCN(C(=O)NCC(F)F)C1 (centres undefined) | -4.81
CC(C)C(C)(C#N)NC(=O)Cn1cc(I)cn1 (centres undefined) | -3.37
COc1cccc(C(=O)N2CCc3c(nc(N)[nH]c3=O)C2)c1C | 1.02
O=C1CCCCN1CCCNCc1cnc(C2CCC2)s1 | 0.195
Cc1cccc(NC(=O)Cc2cnc3n(C)c(=O)[nH]c(=O)n23)c1 | 22.4
CCN(CC)C(=O)Cn1cc(-c2nc(-c3ccccc3C)no2)nn1 | -9.94
Cc1cnn(CCNCC(O)COc2ccc(F)cc2)c1 (centres undefined) | -10.4
CCN1C(=O)CCC12CCCN(CCc1ccccc1)C2 (centres undefined) | 34.9
CCOc1ccc(C(=O)N2CCCC2c2c(C)nn(C)c2OC)cn1 (centres undefined) | -4.47
Cc1sc(C(=O)NC(C)C)cc1S(=O)(=O)N(C)C | -5.26
CCn1nc(C)cc1C(=O)Nc1cc(F)ccc1OCC1CCCO1 (centres undefined) | -16.3
COc1cccc(S(=O)(=O)NC(=O)COC2CCCCC2)c1 | 0.508
Cn1cc(Br)c(=O)c(NS(=O)(=O)c2cc(F)ccc2Cl)c1 | 6.1
CS(=O)(=O)N1C[C@@H](C(=O)Nc2cnccn2)C[C@H]2OCC[C@H]21 | -7.68
COc1cccc(C2SCC(=O)Nc3ccsc32)c1OC (centres undefined) | 1.7
CCN(CC)C(=O)[C@@H]1C[C@H](NC(=O)c2ccn(C(C)(C)C)c2)CN1C | -1.68

SMILES | cytotoxicity at 70.5 h [%]
COc1cccc(Cl)c1C(C(=O)O)N(C)Cc1c(C)n[nH]c1C (centres undefined) | -12.4
Cc1cccc2nc(C(=O)N3CCCC[C@]4(C)NC(=O)CC[C@H]34)cn12 | -0.96
COC1COC2(CCN(Cc3ccccc3F)CC2)C1 (centres undefined) | -8.4
CCc1nnsc1C(=O)NC1CCN(CCOc2ccc(Br)cc2)CC1 | -4.31
Cc1ccc(C(=O)NCC(C)Cn2ccnc2C)c(=O)[nH]1 (centres undefined) | 0.288
Cc1cnn(CC2CN(CCS(=O)(=O)c3ccccc3)CCO2)c1 (centres undefined) | -9.7
O=C(c1cccnc1)N1C[C@@H](c2ccccc2)[C@@]2(CCNC2=O)C1 | 7.29
C1=CCN(c2nc(CC3CC3)nc3c2CCN(C2CCOCC2)CC3)C1 | -1.95
CC(=O)N1C[C@@H](c2ccsc2)[C@@H]2CN(Cc3ccccc3Cl)CC[C@@H]21 | -5.99
Cc1cc(C)nc(NC(=O)C(C)Oc2ccc3c(c2)OCO3)n1 (centres undefined) | -11.4
CN(C)C1CCN(C(=O)NCc2ccc(Cn3cncn3)cc2)CC1 | 14.8
Cn1nc(CNC(=O)c2ccc3nsnc3c2)c2c1CCOC2 | -4.6
COCc1nc(Cn2c(C)cc(C(F)(F)F)cc2=O)no1 | 23.9
O=C(CCCc1ccccn1)N1CCC(n2cccc2)CC1 | -1.32
CCn1ncc2c1C(COC)CN(Cc1ccc(C)o1)C2 (centres undefined) | 2.21
Cn1cccc1C(=O)N1CC[C@@H]2[C@@H]1CC(=O)N2CC1CCOCC1 | 0.858
O=C(c1ccncc1F)N1CC[C@@H]2CN(c3ncccn3)CCO[C@@H]2C1 | -11.2
Cc1ccsc1C(CNC(=O)c1cc(=O)[nH]c(=O)[nH]1)N(C)C (centres undefined) | 17.7
Cc1cc(NC(=O)Nc2ccc3c(ccn3CCN(C)C)c2)n(C)n1 | 2.58
O=C(c1cc(-c2ccco2)nc2c(Cl)cccc12)N1C[C@H]2CNC[C@H]2C1 | -6.09
CN(C(=O)c1cccc(C(=O)NCC(F)(F)F)c1)c1ccccc1 | 10.6
Cc1oc(-c2ccsc2)nc1CN1CC[C@@H]2CCCC[C@H]2C1 | 13.8
Oc1cccc(CN2C[C@H]3CC[C@@H]2CN(Cc2cccnc2)C3)c1 | 3.01
Cc1noc(C(C)C)c1C(=O)NCc1cccc(N(C)C)c1 | 12.6
CO[C@H]1CCN(C(=O)c2cc(C)on2)C[C@@H]1Cc1ccccc1 | 5.73
